Test [1] relates to MCF-7 hormone receptor positive breast cancer cells. The test can be described thus: Resazurin cytotoxicity assay, MCF-7. The format is cell-based. The following applies: for IC50: Homo sapiens, MCF7, MCF-7 cells, 96 hours treatment, resazurin, read-out: MCF-7 IC50 (μM) ± SD; for SI (selectivity index) for MCF-7: IC50 against MCF12A cells ÷ IC50 against MCF-7 cells. On the procedure: (§1) Cytotoxicity and the IC50 of the synthetic compounds were determined using the resazurin assay, [12, 13]. The cancer cells MCF-7 hormone receptor positive breast cancer [estrogen receptor (ER)^+, progesterone receptor (PR)^+, human epidermal growth factor-2 (HER-2)^-; ATCC: HTB-22), HCC70 triple negative breast cancer (TNBC, ER^-, PR^-, HER-2^-; ATCC: CRL-2315) and a non-tumorigenic breast epithelial cell line MCF-12A (ATCC: CRL-10782), were seeded at a density of 5000 cells/well in a 96 well plate and were allowed to adhere overnight at 37°C in a 9% CO2 incubator. The cells were then treated with the synthetic compounds at a concentration range from 15.63–500.00 μM or with a vehicle control [0.2% (v/v) DMSO] for 96 hours at 37°C in a 9% CO2 incubator. Thereafter, […] of resazurin solution was added and the cells were incubated for 2–4 hours at 37°C in a 9% CO2 incubator. The fluorescence was then measured on a Spectramax spectrophotometer with excitation and emission wavelength set at 560 and 590 nm respectively. The experiment was done in technical triplicate and the data were analyzed using GraphPad Prism Inc, (USA) with half-maximal inhibitory concentration (IC50 values) determined by non-linear regression. Selectivity index values for the compounds were calculated as follows: (IC50 of compound against MCF12A cells)÷(IC50 of compound against breast cancer cells) where a SI > 1 is indicative of selective toxicity towards cancer cells vs non-cancerous cells.
(§2) The HCC70 (ATCC-CRL-2315) basal triple-negative breast cancer (TNBC) cell lines and MCF-7 luminal A cancer cell line (ATCC-HTB-22) were purchased from the American Type Culture Collection (ATCC, USA). The MCF-12A breast epithelial cell line (ATCC-CRL-10782) was a gift from Dr Anna-Mart Engelbrecht (Department of Physiology, Stellenbosch University, South Africa).
In general terms: Alamar Blue is a resazurin reagent that responds to reducing activity.

In test [2] the test system is MCF-12A non-tumorigenic breast epithelial cell line. The test can be described thus: Resazurin cytotoxicity assay, MCF-12A. The class given is cell-based. The following applies: Homo sapiens, MCF-12A cells, 96 hours treatment, read-out: MCF-12A IC50 (μM) ± SD. The method, then:
as §1, §2

For test [3], the system named is HCC70 triple negative breast cancer cells. The test can be described thus: Resazurin cytotoxicity assay, HCC70. The class given is cell-based. The following applies: for IC50: Homo sapiens, HCC70 cells, 96 hours treatment, resazurin, read-out: HCC70 IC50 (μM) ± SD; for SI (selectivity index) for HCC70: IC50 against MCF12A cells ÷ IC50 against HCC70 cells. On the procedure: as §1, §2

Test [4] concerns colorectal cancer cells (SW-620). The arrangement: method as in PMID 16766184. The following applies: cytotoxicity; cited from earlier work.
In test [5] the test system is colon cancer cells (SW-620). On the set-up: method as in ref 3 = [3]; doi:10.1039/C2MD20172K; 3 Woods JR , Mo H , Bieberich AA , Alavanja T , Colby DA . Amino derivatives of the sesquiterpene lactone class of natural products as prodrugs . Med.Chem.Comm . 2013; 4 ( 1 ): 27 – 33 . doi: 10.1039. As to conditions: antiproliferative; cited from earlier work.
The test system of a further test is leukemia cells (K562). On the set-up: method as in ref 3, 19 = [3]; doi:10.1039/C2MD20172K; 3 Woods JR , Mo H , Bieberich AA , Alavanja T , Colby DA . Amino derivatives of the sesquiterpene lactone class of natural products as prodrugs . Med.Chem.Comm . 2013; 4 ( 1 ): 27 – 33 . doi: 10.1039 || [19]; 19 Unde NR , Hiremath SV , Kulkarni GH , Kelkar GR . Amino derivatives of sesquiterpenes lactone class of natural products prodrugs . Tetrahedron Lett . 1968; 9 : 4861 – 4862 . The following applies: antiproliferative; cited from earlier work.

We go through 7 molecules from article PMC9397875 (PLoS ONE, 2022).

SMILES strings stand for the structures.

As usually defined, the IC50 is the concentration that inhibits the measured activity by half. What is called GI50 is the concentration at which growth is held to half of that of the control.

`C=C1CC[C@@H]2C(=C)CC[C@H]3[C@@H](OC(=O)[C@H]3CN(CC)CC)[C@H]12` (relative stereo) [DHLC-2, (*3aS,6aR,9aR,9bS*)-3-[(diethylamino)methyl]decahydro-6,9-bis(methylene)azuleno[4,5-b]furan-2(3H)-one]: in test [1], the 50% inhibitory concentration (IC50) worked out at 0.07 µM and the “SI (selectivity index) for MCF-7” value is “SI = 126.86”. In addition, in test [2], the concentration for half-maximal inhibition (IC50) is 8.88 ± 1.1 µM. In test [3], the IC50 turned out to be 1.48 ± 1.49 µM and the “SI (selectivity index) for HCC70” value is on record as “SI = 6.00”.
Consider `CC[C@@]1(O)C(=O)OCc2c1cc1n(c2=O)Cc2cc3ccccc3nc2-1` [Camptothecin, reference compound], for which the half-maximal inhibitory concentration (IC50) in test [1] came to 104 ± 9.92 µM; in test [2], 104.2 ± 1.04 µM; in test [3], 83.2 ± 1.08 µM.
Consider `C=C1CC[C@H]2C(=C)CC[C@H]3C(=C)C(=O)O[C@@H]3[C@@H]12` [DHLC, Dehydrocostus lactone, reference compound], for which the IC50 in test [1] turned out to be 24.7 ± 1.25 µM; in test [2], 0.07 ± 0.07 µM; in test [3] it was 1.11 ± 1.31 µM. The “SI (selectivity index) for HCC70” value in test [3] is given as “SI = 0.06”.
Take `C=C1CC[C@@H]2C(=C)CC[C@H]3[C@@H](OC(=O)[C@H]3CN(C)C)[C@H]12` [DHLC-1, Guaia-4(15),10(14)-dien-12-oic acid, 13-(dimethylamino)-6-hydroxy-γ-lactone]: in test [1], the concentration for half-maximal inhibition (IC50) came out at 0.07 ± 0.07 µM and the “SI (selectivity index) for MCF-7” value is listed as “SI = 121”. Moreover, in test [2], the half-maximal inhibitory concentration (IC50) was determined as 8.47 ± 1.42 µM. In test [3], the half-maximal inhibitory concentration (IC50) turned out to be 0.64 ± 1.47 µM and the “SI (selectivity index) for HCC70” value is listed as “SI = 13.23”.
With `C=C1CC[C@@H]2C(=C)CC[C@H]3[C@@H](OC(=O)[C@H]3CNCC)[C@H]12` [DHLC-3, Guaia-4(15),10(14)-dien-12-oic acid, 13-(ethylamino)-6-hydroxy-γ-lactone], the “SI (selectivity index) for MCF-7” value in test [1] was “SI = 8.33”. In test [2], the 50% inhibitory concentration (IC50) turned out to be 188.2 ± 1.35 µM. Besides, in test [3], the IC50 came to 3.25 ± 1.36 µM and the “SI (selectivity index) for HCC70” value was “SI = 57.91”.
As to `C=C1CC[C@@H]2C(=C)CC[C@H]3[C@@H](OC(=O)[C@H]3CNCCN)[C@H]12` [DHLC-4, 13-ethylenediamine dehydrocostus lactone], in test [1], the IC50 stood at 4.24 ± 1.29 µM and the “SI (selectivity index) for MCF-7” value is given as “SI = 34.83”. In addition, in test [2], the half-maximal inhibitory concentration (IC50) is 147.7 ± 1.28 µM. In addition, in test [3], the IC50 is 2.71 ± 1.3 µM and the “SI (selectivity index) for HCC70” value was “SI = 54.50”.
Consider `C=C1C(=O)O[C@@H]2/C=C(\C)CC/C=C(\C)CC[C@@H]12` [costunolide], for which the 50% inhibitory concentration (IC50) in test [4] is 7.8 µM. The GI50 in test [5] was 7.8 µM; in the test on leukemia cells (K562), 14.5 µM.
